We go through one compound from patent publication US20100210597A1, “C21-Deoxy Ansamycin Derivatives as Antitumor Agents” (priority 2007, published 2010).

Converted amounts (≈) assume the structure as drawn. Read-outs that look alike come from different tables or passages of the source.

One data set concerns Hsp90. The conditions noted are these: shown in WO2007/074347 (there compound 14); cited from earlier work.
A short description of data set [1]: In vivo pharmacokinetic assay in mice. Set-up: species or system mouse. The conditions noted are these: female CD-1 mice. The protocol:
The test compound was prepared directly in endotoxin free water. A single dose of 10 mg/kg p.o. or 3 mg/kg i.v. was administered to groups of female CD1 mice (3 mice for each compound per time point). Dose volumes were 10 mL/kg for both oral and intravenous administration. At 4 minutes and 0.25, 0.5, 1, 2, 4, 8, 24 hours groups were sacrificed and plasma was collected from each mouse for further analysis. For oral dosing, a single dose of Test Article was administered via oral gavage to the mice. For intravenous dosing, a single dose of Test article was administered intravenously to mice via the tail veins.
The concentration of the relevant compounds in the plasma samples was determined by HPLC with MS detection.
• Mass spectrometer: API 3200 Q Trap triple quadruple mass spectrometer • Liquid chromatography: Agilent 1200/PAL HTC Autosampler • Ionization Mode: Electrospray (may be changed depending on the TA) • Monitoring: Multiple Reaction Monitoring • LC chromatography BetaBastic-8, 50×2.1 mm, 5 μm (may separation: be changed depending on the TA)
Based on the peak area ratios of test article to an internal standard, 17-Methoxyethylamino Geldanamycin (Schnur et al., 1995), concentrations of an unknown sample were obtained by a calibration curve.
Test plasma sample (0.05 ml), analyte free mouse whole serum (0.05 ml), internal standard solution (0.1 ml of 10 mg/mL 17-Methoxyethylamino geldanamycin (Schnur et al., 1995) dissolved in methanol) and acetonitrile (0.5 ml) were pipetted into a 2-mL polypropylene tube and the contents of the tubes were mixed for a minimum of 5 minutes (Vibrax mixer). The tubes were then centrifuged in a microfuge for a minimum of 2 minutes at 12,000 rpm. 0.1 ml of the solvent layer was transferred into a 2-mL polypropylene tube containing 1 mL acid diluent (0.1% formic acid). The tubes were then mixed for a minimum of 5 minutes (Vibrax mixer) and then centrifuged at approximately 3500 rpm for 5 minutes. The extracts were transferred to auto-sampler vials and placed in the auto sampler tray which was set at ambient temperature. The auto-sampler was programmed to inject a 0.005 ml aliquot of each extract onto the analytical column.
In vivo confirmation of the cleavage of 20 to the parent molecule, 17, was carried out as described in the general methods.
Female CD-1 mice were given single doses of 20, either intravenously at 3 mg/kg, or orally at 10 mg/kg. Plasma samples were then collected at 8 time points (0.067, 0.25, 0.5, 1, 2, 4, 8 and 24 h postdose) over a 24-h period. The amounts of 20 and 17 in the samples were then analysed. […] After iv administration, 20 was only detected up to 0.25 hours after dosing, whilst 17 was detected up to 4 hours after dosing.

The next data set relates to Caco-2 cells. The experiment in a line: In vitro Caco-2 assay for cell permeability. The class given is in vitro ADME. The conditions noted are these: 10 uM, 2 hour incubation. The protocol: (§1) Caco-2 cells (ATCC Cat. # HTB-37) were grown on fibrillar collagen-coated, microporous, polycarbonate membranes in 24-well BioCaot™ insert plates. Following 5-day growth in Eagle's minimum essential medium supplemented with 10% FBS, the cells were exposed to BioCoat Enterocyte Differentiation Medium (BD, Cat. # 05496) for 2 days to induce enterocytic differentiation. Prior to dosing, the transepithelial electric resistance (TEER) of the Caco-2 cells in each well was measured to ensure the quality of the monolayers.
(§2) The stock solutions of test compounds were prepared at 3 mM in DMSO. Dosing solutions were prepared in the permeability assay buffer at 10 μm. The permeability assay buffer was Hank's balanced salt solution containing 10 mM HEPES at a pH of 7.4±0.2.
(§3) The Caco-2 cells were dosed with the test compounds on either apical side (for A-to-B permeation) or basolateral side (for B-to-A permeation) and incubated at 37° C. with 5% CO2 and 90% relative humidity. The testing for each compound was performed in duplicate. After 2 hour incubation, a 20-μL sample was taken from each of dosing solutions and both donor and receiver compartments. To ensure the validity of the Caco-2 assay, propranolol and vinblastine were used as a high- and a low- to medium-permeability positive control, respectively. Vinblastine also served as a P-gp substrate, tested in conjunction with a P-gp inhibitor, verapamil.
(§4) To quantify test compounds by LC/MS/MS, a related geldanamycin-like compound, 17-methoxyethylamino geldanamycin (Schnur et al., 1995), was used as the internal standard. The calculation of permeability of each compound involved only the concentration ratio of the same test compound, the concentration ratio was expressed in the peak area ratio of the test compound to the internal standard. The peak area ratio of each compound was derived by LC-MS/MS.
(§5) The apparent permeability coefficient Papp was calculated as below: […]
(§6) dCr: cumulative concentration in the receiver compartment in M. dt: duration of the assay (i.e., 7200 seconds). Vr: volume of the receiver compartment in cm^3. A: area of the cell monolayer (0.31 cm^2 for 24-well BioCoat™ plate). C0: concentration of the dosing solution in M.
(§7) The in vitro permeability of 20 and the parent 17 were assayed using caco-2 cells, as described in the general methods. All compounds were analysed at a concentration of 10 uM.
Background: Caco-2 cells form a polarised layer with tight junctions and transporters.

Data set [2] in a line: In vitro Caco-2 assay for cell permeability. The class given is in vitro ADME. The conditions noted are these: human, Caco-2, pH 7.4, 10 uM, 2 hour incubation. The protocol: as §1, §2, §3, §4, §5, §6, §7
The nature of data set [3]: Water solubility assay, thermodynamic measurement. The class given is physicochemical. The conditions noted are these: 5% glucose, 6 hours, room temperature. The protocol:
Thermodynamic Measurements: • The appropriate amounts of compound to make solutions of the compounds at 2, 5, 10 and or 20 mM were mixed with the appropriate amounts of 5% glucose and with DMSO in brown glass vials and shaken at room temperature on an IKA® vibrax VXR shaker. After 6 hours the resulting suspensions/solutions were centrifuged for 20 min at 13200 rpm. • Aliquots of the supernatant fluid were then analysed by an Agilent 1100 HPLC coupled to a Bruker Daltonics Esquire3000 electrospray mass spectrometer (for details see specific examples herein). Chromatography was achieved over a Phenomenex Hyperclone column, BDS C18 3u (150×4.6 mm), with a linear gradient of acetonitrile:water (40:60 to 100) over 11 min at 1 mL/min. UV absorbance was monitored at λ=258 and 280 nm. • All analyses were performed in triplicate and the solubilities of individual compounds calculated by comparing their solubility in 5% glucose with an assumed solubility of 100% in DMSO.
Solubility in 2% DMSO in PBS at each time point was determined by comparing total peak areas for each chromatogram with mean total peak area for chromatograms produced from the corresponding 6 hour DMSO solutions. (Mean total peak area in DMSO solutions was assumed to be equivalent to a 0.5 mM solution). The solubility of compound 17 was measured by a thermodynamic assay as described in the general methods.

For the compound `CO[C@H]1C[C@H](C)Cc2cc(O)cc(c2)NC(=O)/C(C)=C/CC[C@H](C)[C@@H](OC(N)=O)/C(C)=C/[C@H](C)[C@H]1O` [Compound 17, 4,5-dihydro-11-O-demethyl-15-demethoxy-18,21-didehydro-21-deoxomacbecin], in the data set on Hsp90, the Hsp90 inhibition result is listed as “potent Hsp90 inhibitor”. The “detected in plasma up to (time after dosing)” value in data set [1] (single intravenous dose of 20 at 3 mg/kg) is “up to 4 hours”; in data set [1] (single oral dose of 20 at 10 mg/kg) it was “up to 8 hours”. The “Efflux Limited” value with Caco-2 cells was “Yes (Papp (B → A)/Papp (A → B) ≧ 3, and Papp (B → A) ≧ 1.0 × 10^-6 cm/s)”. The efflux ratio at 2 h, 10 uM in data set [2] (read-out: Efflux ratio Papp(B → A)/Papp(A → B)) was determined as 6.8. Besides, the Papp A→B (in general, how fast a substance crosses the layer from the apical side) at 2 h, 10 uM stood at 4.4 nm/s in data set [2] (read-out: Permeability Apical to Basolateral Papp(A → B) Mean), 3.9 nm/s in data set [2] (read-out: Permeability Apical to Basolateral Papp(A → B) Rep. 1) and 4.9 nm/s in data set [2] (read-out: Permeability Apical to Basolateral Papp(A → B) Rep. 2). Also, the Papp B→A – broadly, the apparent permeability from the basolateral to the apical side of a cell layer – at 2 h, 10 uM in data set [2] (read-out: Permeability Basolateral to Apical Papp(B → A) Mean) was 29.5 nm/s; in data set [2] (read-out: Permeability Basolateral to Apical Papp(B → A) Rep. 1) it was 17 nm/s; in data set [2] (read-out: Permeability Basolateral to Apical Papp(B → A) Rep. 2), 42.1 nm/s. For the same compound, the solubility (in general, how much of the substance goes into solution per volume) in data set [3] was 716 µM (≈ 360 µg/mL).
